The source of these data is US20240025907A1, “QUINAZOLINE PAN-KRas INHIBITORS” (Mirati Therapeutics, Inc., priority 2022, published 2024).

Holding throughout (type): cell-based
Experiment [1] has as its system KRas-mediated Phosphorylation of ERK in H460 cells. The experiment in a line: Cisbio HTRF pERK assay, H460 cells. The settings on record: single point at 100 nM; for inhibition at 0.1 µM: Homo sapiens, NCI-H460, H460 cells; for Inhibition (HTRF % at 100 nM) of KRas-mediated Phosphorylation of ERK, H460: H460 cells, 0.1 µM.
Experiment [2] deals with KRas-mediated Phosphorylation of ERK in HCT116 cells. As to the kind of experiment: Cisbio HTRF pERK assay, HCT116 cells. The settings on record: single point at 100 nM; for inhibition at 0.1 µM: Homo sapiens, HCT-116, HCT116 cells; for Inhibition (HTRF % at 100 nM) of KRas-mediated Phosphorylation of ERK, HCT116: HCT116 cells, 0.1 µM.
In experiment [3] the test system is KRas-mediated Phosphorylation of ERK in A549 cells. The experiment in a line: Cisbio HTRF pERK assay, A549 cells. The settings on record: single point at 100 nM; for Inhibition (HTRF % at 100 nM) of KRas-mediated Phosphorylation of ERK, A549: A549 cells, 0.1 µM; for inhibition at 0.1 µM: Homo sapiens, A549, A549 cells.
For experiment [4], the system named is KRas-mediated Phosphorylation of ERK in H358 cells. The experiment in a line: Cisbio HTRF pERK assay, H358 cells. The settings on record: single point at 100 nM; for Inhibition (HTRF % at 100 nM) of KRas-mediated Phosphorylation of ERK, H358: H358 cells, 0.1 µM; for inhibition at 0.1 µM: Homo sapiens, NCI-H358, H358 cells.

Structures are written as SMILES.

For `CCc1c(F)ccc2cc(O)cc(-c3c(F)cc4c(N5CCCn6nc(C(=O)N7CCCC7)cc6C5)nc(OC[C@@]56CCCN5C[C@H](F)C6)nc4c3F)c12` [Example 58, (5-(7-(8-ethyl-7-fluoro-3-hydroxynaphthalen-1-yl)-6,8-difluoro-2-(((2R,7aS)-2-fluorotetrahydro-1H-pyrrolizin-7a(5H)-yl)methoxy)quinazolin-4-yl)-5,6,7,8-tetrahydro-4H-pyrazolo[1,5-a][1,4]diazepin-2-yl)(pyrrolidin-1-yl)methanone], the inhibition at 0.1 µM in experiment [1] was 58%; in experiment [2], 12%.

Consider `CCc1c(F)ccc2cc(O)cc(-c3ccc4c(N5CC6C(=O)NC(=O)C6C5)nc(OCC5(CN(C)C)CC5)nc4c3F)c12` (stereo not drawn) [Example 39, 5-(2-((1-((dimethylamino)methyl)cyclopropyl)methoxy)-7-(8-ethyl-7-fluoro-3-hydroxynaphthalen-1-yl)-8-fluoroquinazolin-4-yl)tetrahydropyrrolo[3,4-c]pyrrole-1,3(2H,3aH)-dione], for which the results for the inhibition at 0.1 µM in experiment [1] and in experiment [2] were 11% and 3%, respectively.

As to `CCc1c(F)ccc2cc(O)cc(-c3c(F)cc4c(N5CCC[C@@](C)(O)C5)nc(OC[C@@]56CCCN5C[C@H](F)C6)nc4c3F)c12` (atropisomer, axis not shown; (aS)) [Example 70, (R)-1-((S)-7-(8-ethyl-7-fluoro-3-hydroxynaphthalen-1-yl)-6,8-difluoro-2-(((2R,7aS)-2-fluorotetrahydro-1H-pyrrolizin-7a(5H)-yl)methoxy)quinazolin-4-yl)-3-methylpiperidin-3-ol], the “Inhibition (HTRF % at 100 nM) of KRas-mediated Phosphorylation of ERK, A549” value in experiment [3] stood at 6%. In experiment [4], the “Inhibition (HTRF % at 100 nM) of KRas-mediated Phosphorylation of ERK, H358” value was found to be 24%.

Take `CCc1c(F)ccc2cc(O)cc(-c3c(F)cc4c(N5CCCn6nc(C(=O)N(C)C)cc6C5)nc(OC[C@@]56CCCN5C[C@H](F)C6)nc4c3F)c12` (atropisomer, axis not shown; (aS)) [Example 63, 5-((R)-7-(8-ethyl-7-fluoro-3-hydroxynaphthalen-1-yl)-6,8-difluoro-2-(((2R,7aS)-2-fluorohexahydro-1H-pyrrolizin-7a-yl)methoxy)quinazolin-4-yl)-N,N-dimethyl-5,6,7,8-tetrahydro-4H-pyrazolo[1,5-a][1,4]diazepine-2-carboxamide]: the “Inhibition (HTRF % at 100 nM) of KRas-mediated Phosphorylation of ERK, H460” value in experiment [1] is 82%. The “Inhibition (HTRF % at 100 nM) of KRas-mediated Phosphorylation of ERK, HCT116” value in experiment [2] was determined as 61%.

Take `CCc1c(F)ccc2cc(O)cc(-c3c(F)cc4c(N5CCCC6(C5)NC(=O)NC6=O)nc(OCC5(CN(C)C)CC5)nc4c3F)c12` (stereo not drawn) [Example 54, 7-(2-((1-((dimethylamino)methyl)cyclopropyl)methoxy)-7-(8-ethyl-7-fluoro-3-hydroxynaphthalen-1-yl)-6,8-difluoroquinazolin-4-yl)-1,3,7-triazaspiro[4.5]decane-2,4-dione]: the inhibition at 0.1 µM in experiment [3] worked out at 61%; in experiment [4], 100%.

As for `CCc1c(F)ccc2cc(O)cc(-c3ccc4c(N5CCCC6(CC(=O)N6)C5)nc(OCC5(CN(C)C)CC5)nc4c3F)c12` (stereo not drawn) [Example 38, 6-(2-((1-((dimethylamino)methyl)cyclopropyl)methoxy)-7-(8-ethyl-7-fluoro-3-hydroxynaphthalen-1-yl)-8-fluoroquinazolin-4-yl)-1,6-diazaspiro[3.5]nonan-2-one], the results for the inhibition at 0.1 µM in experiment [3] and in experiment [4] were 9% and 16%, respectively.

With `CCc1c(F)ccc2cc(O)cc(-c3c(F)cc4c(N5CCCn6nc(C(=O)NC(C)C)cc6C5)nc(OC[C@@]56CCCN5C[C@H](F)C6)nc4c3F)c12` [Example 59, 5-(7-(8-ethyl-7-fluoro-3-hydroxynaphthalen-1-yl)-6,8-difluoro-2-(((2R,7aS)-2-fluorotetrahydro-1H-pyrrolizin-7a(51)-yl)methoxy)quinazolin-4-yl)-N-isopropyl-5,6,7,8-tetrahydro-4H-pyrazolo[1,5-a][1,4]diazepine-2-carboxamide], the inhibition at 0.1 µM in experiment [1] worked out at 36%; in experiment [2], 23%.

As to `CCc1c(F)ccc2cc(O)cc(-c3c(O)cc4c(N(C)C)nc(OC[C@@]56CCCN5C[C@H](F)C6)nc4c3F)c12` [Example 28, 4-(dimethylamino)-7-(8-ethyl-7-fluoro-3-hydroxynaphthalen-1-yl)-8-fluoro-2-(((2R,7aS)-2-fluorotetrahydro-1H-pyrrolizin-7a(5H)-yl)methoxy)quinazolin-6-ol], the inhibition at 0.1 µM in experiment [1] is 8%; in experiment [2], 9%.

For the molecule `CCc1c(F)ccc2cc(O)cc(-c3c(F)cc4c(N5CCC[C@@](C)(O)C5)nc(OC[C@@]56CCCN5C[C@H](F)C6)nc4c3F)c12` (atropisomer, axis not shown; (aS)) [Example 69, (R)-1-((R)-7-(8-ethyl-7-fluoro-3-hydroxynaphthalen-1-yl)-6,8-difluoro-2-(((2R,7aS)-2-fluorotetrahydro-1H-pyrrolizin-7a(5H)-yl)methoxy)quinazolin-4-yl)-3-methylpiperidin-3-ol], the “Inhibition (HTRF % at 100 nM) of KRas-mediated Phosphorylation of ERK, A549” value in experiment [3] is on record as 84%. Also, in experiment [4], the “Inhibition (HTRF % at 100 nM) of KRas-mediated Phosphorylation of ERK, H358” value is reported as 101%.

Turning to `CCc1c(F)ccc2cc(O)cc(-c3c(F)cc4c(N5CCCn6nncc6C5)nc(OC[C@@]56CCCN5C[C@H](F)C6)nc4c3F)c12` [Example 61, 4-(4-(7,8-dihydro-4H-[1,2,3]triazolo[1,5-a][1,4]diazepin-5(6H)-yl)-6,8-difluoro-2-(((2R,7aS)-2-fluorotetrahydro-1H-pyrrolizin-7a(5H)-yl)methoxy)quinazolin-7-yl)-5-ethyl-6-fluoronaphthalen-2-ol], the figures for the inhibition at 0.1 µM in experiment [1] and in experiment [2] were 36% and 9%, respectively.

`CCc1c(F)ccc2cc(O)cc(-c3ccc4c(N5CCCC6(CNC(=O)N6)C5)nc(OCC5(CN(C)C)CC5)nc4c3F)c12` (stereo not drawn) [Example 36, 7-(2-((1-((dimethylamino)methyl)cyclopropyl)methoxy)-7-(8-ethyl-7-fluoro-3-hydroxynaphthalen-1-yl)-8-fluoroquinazolin-4-yl)-1,3,7-triazaspiro[4.5]decan-2-one]: the values for the inhibition at 0.1 µM in experiment [1] and in experiment [2] were 25% and -22%, respectively.

With `CCc1c(F)ccc2cc(O)cc(-c3c(F)cc4c(N5CCCn6nc(C(=O)N(C)C)cc6C5)nc(OC[C@@]56CCCN5C[C@H](F)C6)nc4c3F)c12` (atropisomer, axis not shown; (aS)) [Example 64, 5-((S)-7-(8-ethyl-7-fluoro-3-hydroxynaphthalen-1-yl)-6,8-difluoro-2-(((2R,7aS)-2-fluorohexahydro-1H-pyrrolizin-7a-yl)methoxy)quinazolin-4-yl)-N,N-dimethyl-5,6,7,8-tetrahydro-4H-pyrazolo[1,5-a][1,4]diazepine-2-carboxamide], the “Inhibition (HTRF % at 100 nM) of KRas-mediated Phosphorylation of ERK, H460” value in experiment [1] is 3%. Besides, in experiment [2], the “Inhibition (HTRF % at 100 nM) of KRas-mediated Phosphorylation of ERK, HCT116” value was determined as 14%.

As to `CCc1c(F)ccc2cc(O)cc(-c3c(F)cc4c(N5CCC[C@@](C)(O)C5)nc(OCC56CCCN5CCC6)nc4c3F)c12` [Example 48, (3R)-1-(7-(8-ethyl-7-fluoro-3-hydroxynaphthalen-1-yl)-6,8-difluoro-2-((tetrahydro-1H-pyrrolizin-7a(5H)-yl)methoxy)quinazolin-4-yl)-3-methylpiperidin-3-ol], the figures for the inhibition at 0.1 µM in experiment [1] and in experiment [2] were 75% and 50%, respectively.

`CCc1c(F)ccc2cc(O)cc(-c3ccc4c(N5CCCn6nncc6C5)nc(OC[C@@]56CCCN5C[C@H](F)C6)nc4c3F)c12` [Example 44]: the inhibition at 0.1 µM in experiment [3] was -9%; in experiment [4], 3%.

Take `CCc1c(F)ccc2cc(O)cc(-c3c(F)cc4c(N5CC6C(=O)NC(=O)C6C5)nc(OCC5(CN(C)C)CC5)nc4c3F)c12` (stereo not drawn) [Example 52, 5-(2-((1-((dimethylamino)methyl)cyclopropyl)methoxy)-7-(8-ethly-7-fluoro-3-hydroxynaphthalen-1-yl)-6,8-difluoroquinazolin-4-yl)tetrahydropyrrolo[3,4-c]pyrrole-1,3(2H,3aH)-dione]: the inhibition at 0.1 µM in experiment [3] was 33%; in experiment [4], 6%.

`CCc1c(F)ccc2cc(O)cc(-c3c(F)cc4c(N5CCCC6(CC(=O)N6)C5)nc(OCC5(CN(C)C)CC5)nc4c3F)c12` (stereo not drawn) [Example 51, 6-(2-((1-((dimethylamino)methyl)cyclopropyl)methoxy)-7-(8-ethyl-7-fluoro-3-hydroxynaphthalen-1-yl)-6,8-difluoroquinazolin-4-yl)-1,6-diazaspiro[3.5]nonan-2-one]: the inhibition at 0.1 µM was found to be 6% in experiment [3] and 67% in experiment [4].

For `CCc1c(F)ccc2cc(O)cc(-c3c(F)cc4c(N5CCCn6nc(C(=O)N(C)C)cc6C5)nc(OCC5(CN(C)C)CC5)nc4c3F)c12` [Example 55, 5-(2-((1-((dimethylamino)methyl)cyclopropyl)methoxy)-7-(8-ethyl-7-fluoro-3-hydroxynaphthalen-1-yl)-6,8-difluoroquinazolin-4-yl)-N,N-dimethyl-5,6,7,8-tetrahydro-4H-pyrazolo[1,5-a][1,4]diazepine-2-carboxamide], the inhibition at 0.1 µM in experiment [3] was -13%; in experiment [4], 2%.

Consider `CCc1c(F)ccc2cc(O)cc(-c3c(F)cc4c(N5CCCC6(CC(O)C6)C5)nc(OCC5(CN(C)C)CC5)nc4c3F)c12` (stereo not drawn) [Example 53, 6-(2-((1-((dimethylamino)methyl)cyclopropyl)methoxy)-7-(8-ethyl-7-fluoro-3-hydroxynaphthalen-1-yl)-6,8-difluoroquinazolin-4-yl)-6-azaspiro[3.5]nonan-2-ol], for which the inhibition at 0.1 µM in experiment [3] is 27%; in experiment [4], 40%.
